Laboratory results taken from ChEMBL document CHEMBL1909046, “DrugMatrix in vitro pharmacology data”.

What was measured:
[1] = DRUGMATRIX: Imidazoline I2, Central radioligand binding (ligand: [3H] Idazoxan); format: cell membranes, Rattus norvegicus, Wistar, Cerebral cortex, Membrane; settings: Not Active = under 50% inhibition at 10 µM
[2] = DRUGMATRIX: Leukotriene, BLT (LTB4) radioligand binding (ligand: [3H]LTB4); format: cell membranes, Membrane; settings: u-937, Not Active = under 50% inhibition at 10 µM
[3] = DRUGMATRIX: GABAA, Flunitrazepam, Central radioligand binding (ligand: [3H] Flunitrazepam); format: cell membranes, Rattus norvegicus, Wistar, Brain, Membrane; settings: Not Active = under 50% inhibition at 10 µM
[4] = DRUGMATRIX: Phosphodiesterase PDE3 enzyme inhibition (substrate: [3H]cAMP + cAMP); format: tissue-based, Homo sapiens; settings: platelet; Not Active = under 50% inhibition at 10 µM
[5] = DRUGMATRIX: Nicotinic Acetylcholine radioligand binding (ligand: [125I] Epibatidine); format: cell membranes, Membrane; settings: imr-32; Not Active = under 50% inhibition at 10 µM
[6] = DRUGMATRIX: Atrial Natriuretic Factor (ANF) radioligand binding (ligand: [125I] ANF (rat)); format: cell membranes, Cavia porcellus, Dunkin-Hartley, Adrenal gland, Membrane; settings: Not Active = under 50% inhibition at 10 µM
[7] = biological target: Beta-1 adrenergic receptor (Homo sapiens, UniProt P08588); assay: DRUGMATRIX: Adrenergic beta1 radioligand binding (ligand: [125I] Cyanopindolol); format: cell membranes, CHO-K1, Membrane; settings: cho-k1; Not Active = under 50% inhibition at 10 µM
Glucocorticoid receptor = biological target: T1, Glucocorticoid receptor (Homo sapiens, UniProt P04150); settings: hela s3; further: in other assays of this panel Not Active means under 50% inhibition at 10 µM
T1 sequence (P04150 whole entry): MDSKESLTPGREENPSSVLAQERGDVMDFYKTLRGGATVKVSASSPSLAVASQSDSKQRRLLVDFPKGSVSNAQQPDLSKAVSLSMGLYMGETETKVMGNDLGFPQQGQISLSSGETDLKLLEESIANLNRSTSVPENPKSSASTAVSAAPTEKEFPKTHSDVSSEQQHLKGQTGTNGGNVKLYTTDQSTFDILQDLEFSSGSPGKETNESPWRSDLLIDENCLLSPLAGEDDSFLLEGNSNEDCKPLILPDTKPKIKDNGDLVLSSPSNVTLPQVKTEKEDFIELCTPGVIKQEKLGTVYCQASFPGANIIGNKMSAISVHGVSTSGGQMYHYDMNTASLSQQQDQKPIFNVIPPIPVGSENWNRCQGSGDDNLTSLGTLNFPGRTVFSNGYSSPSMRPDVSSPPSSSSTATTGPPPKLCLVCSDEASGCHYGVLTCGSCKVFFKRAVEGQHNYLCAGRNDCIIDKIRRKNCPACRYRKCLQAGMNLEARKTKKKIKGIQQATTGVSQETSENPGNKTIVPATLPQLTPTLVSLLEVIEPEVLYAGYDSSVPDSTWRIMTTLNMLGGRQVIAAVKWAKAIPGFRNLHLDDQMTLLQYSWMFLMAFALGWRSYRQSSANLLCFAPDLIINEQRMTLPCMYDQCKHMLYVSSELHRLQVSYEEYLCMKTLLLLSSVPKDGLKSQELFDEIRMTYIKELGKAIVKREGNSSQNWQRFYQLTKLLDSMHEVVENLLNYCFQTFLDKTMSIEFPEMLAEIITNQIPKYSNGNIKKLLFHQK

Sequence of Beta-1 adrenergic receptor (P08588 whole entry): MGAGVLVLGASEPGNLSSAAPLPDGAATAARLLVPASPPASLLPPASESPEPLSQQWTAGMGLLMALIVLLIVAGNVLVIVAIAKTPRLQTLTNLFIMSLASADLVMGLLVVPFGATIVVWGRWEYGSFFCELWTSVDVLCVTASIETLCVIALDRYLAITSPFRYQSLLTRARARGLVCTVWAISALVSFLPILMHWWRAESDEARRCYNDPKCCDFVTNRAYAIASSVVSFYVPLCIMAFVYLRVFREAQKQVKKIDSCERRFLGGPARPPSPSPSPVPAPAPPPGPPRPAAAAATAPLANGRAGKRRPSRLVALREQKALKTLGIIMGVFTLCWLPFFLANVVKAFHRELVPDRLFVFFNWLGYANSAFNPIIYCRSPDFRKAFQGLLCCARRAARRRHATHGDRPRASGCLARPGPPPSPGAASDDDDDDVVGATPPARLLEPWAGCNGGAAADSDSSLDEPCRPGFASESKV

| Molecule | IC50 [1] | Ki [1] | IC50 [2] | Ki [2] | IC50 [3] | Ki [3] | IC50 [4] | Ki [4] | IC50 [5] | Ki [5] | IC50 [6] | Ki [6] | IC50 [7] | IC50 (Glucocorticoid receptor) | IC50 ([1]; read-out: IC50) [µM] | Ki ([1]; read-out: Ki) [µM] | IC50 ([2]; read-out: IC50) [µM] | Ki ([2]; read-out: Ki) [µM] | Ki [7] | Ki (Glucocorticoid receptor) |
| --- | --- | --- | --- | --- | --- | --- | --- | --- | --- | --- | --- | --- | --- | --- | --- | --- | --- | --- | --- | --- |
| CCCCC(=O)N(Cc1ccc(-c2ccccc2-c2nnn[nH]2)cc1)[C@H](C(=O)O)C(C)C | Not Active | Not Active | Not Active | Not Active | Not Active | Not Active | Not Active | Not Active | Not Active | Not Active | Not Active | Not Active | Not Active | Not Active |  |  |  |  |  |  |
| O=C(O)COc1ccc(C(=O)c2cccs2)c(Cl)c1Cl | Not Active | Not Active | Not Active | Not Active | Not Active | Not Active | Not Active | Not Active | Not Active | Not Active | Not Active | Not Active | Not Active | Not Active |  |  |  |  |  |  |
| CN1[C@@H]2CC[C@H]1C[C@@H](OC(c1ccccc1)c1ccccc1)C2 [BENZTROPINE] |  |  |  |  |  |  |  |  |  |  |  |  |  | Not Active |  |  |  |  |  |  |
| C[C@@](Cc1ccc(O)c(O)c1)(NN)C(=O)O.O [CARBIDOPA] | Not Active | Not Active | Not Active | Not Active | Not Active | Not Active | Not Active | Not Active | Not Active | Not Active | Not Active | Not Active | Not Active |  |  |  |  |  |  |  |
| CN1CCN(C2=Nc3cc(Cl)ccc3Nc3ccccc32)CC1 [CLOZAPINE] |  |  |  |  |  |  |  |  |  |  |  |  | Not Active | Not Active |  |  |  |  |  |  |
| O=C(O)CCCCC1CCSS1 (stereo not drawn) [LIPOIC ACID, ALPHA] | Not Active | Not Active | Not Active | Not Active | Not Active | Not Active | Not Active | Not Active | Not Active | Not Active | Not Active | Not Active | Not Active | Not Active |  |  |  |  |  |  |
| CN(C)C(=O)C(CCN1CCC(O)(c2ccc(Cl)cc2)CC1)(c1ccccc1)c1ccccc1 [LOPERAMIDE] |  |  |  |  |  |  |  |  |  |  |  |  |  | Not Active |  |  |  |  |  |  |
| Clc1ccc(COC(Cn2ccnc2)c2ccc(Cl)cc2Cl)c(Cl)c1 (stereo not given) [MICONAZOLE] |  |  |  |  |  |  |  |  |  |  |  |  |  | Not Active |  |  |  |  |  |  |
| Oc1ccc2c3c1O[C@H]1[C@@H](O)CC[C@@]4(O)[C@@H](C2)N(CC2CCC2)CC[C@]314 [NALBUPHINE] |  |  |  |  |  |  |  |  |  |  |  |  | Not Active | Not Active |  |  |  |  |  |  |
| C[C@]12C=CC(=O)C=C1CC[C@@H]1[C@@H]2C(=O)C[C@@]2(C)[C@H]1CC[C@]2(O)C(=O)CO [PREDNISONE] | Not Active | Not Active | Not Active | Not Active | Not Active | Not Active | Not Active | Not Active | Not Active | Not Active | Not Active | Not Active | Not Active |  |  |  |  |  |  |  |
| OCCOCCN1CCN(C2=Nc3ccccc3Sc3ccccc32)CC1 [QUETIAPINE] |  |  |  |  |  |  |  |  |  |  |  |  | Not Active |  |  |  |  |  |  |  |
| COC(=O)[C@H]1[C@H]2C[C@@H]3c4[nH]c5cc(OC)ccc5c4CCN3C[C@H]2C[C@@H](OC(=O)c2cc(OC)c(OC)c(OC)c2)[C@@H]1OC [RESERPINE] | Not Active | Not Active | Not Active | Not Active | Not Active | Not Active | Not Active | Not Active | Not Active | Not Active | Not Active | Not Active | Not Active | Not Active |  |  |  |  |  |  |
| O=C(O)c1ccccc1O [SALICYLIC ACID] | Not Active | Not Active | Not Active | Not Active | Not Active | Not Active | Not Active | Not Active | Not Active | Not Active | Not Active | Not Active |  |  |  |  |  |  |  |  |
| C[S+]([O-])c1ccc(-c2nc(-c3ccncc3)c(-c3ccc(F)cc3)[nH]2)cc1 (stereo not given) [SB-203580] |  |  |  |  |  |  |  |  |  |  |  |  | Not Active | Not Active |  |  |  |  |  |  |
| CC1CCC(NC(=O)N(CCCl)N=O)CC1 (stereo not given) [SEMUSTINE] |  |  | Not Active | Not Active | Not Active | Not Active | Not Active | Not Active | Not Active | Not Active | Not Active | Not Active | Not Active | Not Active | 1.61 | 1.08 |  |  |  |  |
| O=C1C[C@@H]2OCC=C3CN4CC[C@]56c7ccccc7N1[C@H]5[C@H]2[C@H]3C[C@H]46 [STRYCHNINE] | Not Active | Not Active | Not Active | Not Active | Not Active | Not Active | Not Active | Not Active | Not Active | Not Active | Not Active | Not Active |  |  |  |  |  |  |  |  |
| C[N+](C)(C)CCOC(=O)CCC(=O)OCC[N+](C)(C)C.[Cl-].[Cl-] [SUCCINYLCHOLINE CHLORIDE] | Not Active | Not Active | Not Active | Not Active | Not Active | Not Active | Not Active | Not Active | Not Active | Not Active | Not Active | Not Active | Not Active | Not Active |  |  |  |  |  |  |
| Nc1ccc(S(=O)(=O)NC(=O)c2ccccc2)cc1 [SULFABENZAMIDE] | Not Active | Not Active | Not Active | Not Active | Not Active | Not Active | Not Active | Not Active | Not Active | Not Active | Not Active | Not Active | Not Active | Not Active |  |  |  |  |  |  |
| CCCCCCCCNC(C)C(O)c1ccc(SC(C)C)cc1 (stereo not given) [SULOCTIDIL] | Not Active | Not Active |  |  | Not Active | Not Active | Not Active | Not Active |  |  |  |  |  | Not Active |  |  | 1.44 | 0.365 |  |  |
| O=c1[nH]c(=O)n(C2CCCO2)cc1F (stereo not given) [TEGAFUR] | Not Active | Not Active | Not Active | Not Active | Not Active | Not Active | Not Active | Not Active | Not Active | Not Active | Not Active | Not Active | Not Active |  |  |  |  |  |  |  |
| CC(=N)S [THIOACETAMIDE] | Not Active | Not Active | Not Active | Not Active | Not Active | Not Active | Not Active | Not Active | Not Active | Not Active | Not Active | Not Active | Not Active |  |  |  |  |  |  |  |
| Cc1ccc(C(=O)c2ccc(CC(=O)O)n2C)cc1 [TOLMETIN] | Not Active | Not Active | Not Active | Not Active | Not Active | Not Active | Not Active | Not Active | Not Active | Not Active | Not Active | Not Active | Not Active |  |  |  |  |  |  |  |
| CC(=O)OCC(COC(C)=O)OC(C)=O [TRIACETIN] | Not Active | Not Active | Not Active | Not Active | Not Active | Not Active | Not Active | Not Active | Not Active | Not Active | Not Active | Not Active | Not Active | Not Active |  |  |  |  |  |  |
| CN1CCN(CCCN2c3ccccc3Sc3ccc(C(F)(F)F)cc32)CC1 [TRIFLUOPERAZINE] | Not Active | Not Active | Not Active | Not Active | Not Active | Not Active | Not Active | Not Active | Not Active | Not Active | Not Active | Not Active | Not Active | Not Active |  |  |  |  |  |  |
| TRANSPLATIN | Not Active | Not Active | Not Active | Not Active | Not Active | Not Active | Not Active | Not Active | Not Active | Not Active | Not Active | Not Active | Not Active | Not Active |  |  |  |  | Not Active | Not Active |
